The results in this text go back to ChEMBL document CHEMBL5634166, “Structural modification of tanshinone IIA and their α-glucosidase inhibitory activity” (Bioorg Med Chem Lett, 2024).

Active and inactive are the calls of the source. No cut-off for these calls is given here. A value given as a limit tells only on which side of the number the result lay.

The target in assay [1] is T1, Alpha-glucosidase (Saccharomyces cerevisiae S288c) (UniProt P53341+P38158+P07265). The experiment in a line: Inhibition of yeast alpha glucosidase at 50 uM relative to control. In kind it is protein assay.
Assay [2] has as its target T2, Alpha-glucosidase (Saccharomyces cerevisiae S288c, UniProt P53341+P38158+P07265). The assay can be described thus: Inhibition of yeast alpha-glucosidase. In kind it is protein assay.
In assay [3] the target is T1, Alpha-glucosidase (Saccharomyces cerevisiae S288c). The assay can be described thus: Potency index, ratio of acarbose IC50 to test compound IC50 for inhibition of yeast alpha glucosidase. In kind it is protein assay.
The target of assay [4] is T2, Alpha-glucosidase. The experiment in a line: Inhibition of alpha-glucosidase (unknown origin). In kind it is protein assay, Homo sapiens.
Assay [5] deals with T2, Alpha-glucosidase. The experiment in a line: Inhibition of Saccharomyces cerevisiae alpha-glucosidase using p-nitrophenyl-alpha-D-glucopyranoside as substrate preincubated for 5 mins followed by substrate addition and measured after 30 mins by spectrophotometric analysis. The class given is protein assay.
In assay [6] the target is T2, Alpha-glucosidase. The experiment in a line: Binding affinity to yeast alpha glucosidase assessed as inhibition constant. In kind it is protein assay.
The target of assay [7] is T1, Alpha-glucosidase (Saccharomyces cerevisiae S288c). The assay can be described thus: Competitive inhibition of yeast alpha-glucosidase assessed as […] with constant Vmax by Lineweaver-Burk plot analysis. The class given is protein assay.

As for `COc1ccc(-c2nc3c(o2)c2c4c(ccc2c2occ(C)c32)C(C)(C)CCC4)c(OC)c1`, the inhibition (in general, the drop in the measured response relative to a control, in per cent) in assay [1] was below 80%.
For `Cc1coc2c3ccc4c(c3c3oc(-c5ccc(Cl)c(Cl)c5)nc3c12)CCCC4(C)C`, in assay [1], the inhibition is above 80%. Moreover, the IC50 – broadly, the midpoint of a concentration-inhibition curve – against Alpha-glucosidase [2] stood at 6.67 µM.
For the compound `Cc1coc2c3ccc4c(c3c3oc(-c5ccc(Cl)cc5)nc3c12)CCCC4(C)C`, the Ratio IC50 in assay [3] is 30. The inhibition in assay [1] was above 80%. Further, the IC50 at Alpha-glucosidase [2] was 3.45 µM.
In assay [1], `Cc1coc2c3ccc4c(c3c3oc(-c5ccccc5F)nc3c12)CCCC4(C)C` had an inhibition below 80%.
`Oc1ccc(/C=N/c2nnc(-c3ccc(O)cc3)o2)cc1` had an IC50 at Alpha-glucosidase [4] of 0.3 µM.
For `Cc1coc2c3ccc4c(c3c3oc(CCCc5ccccc5)nc3c12)CCCC4(C)C`, the inhibition in assay [1] is below 80%.
Take `Cc1coc2c3ccc4c(c3c3oc(-c5ccccc5C(F)(F)F)nc3c12)CCCC4(C)C`: the inhibition in assay [1] is below 80%.
Turning to `Cc1coc2c3ccc4c(c3c3oc(Cc5ccccc5)nc3c12)CCCC4(C)C`, the inhibition in assay [1] is above 80%. This compound gave an IC50 against Alpha-glucosidase [2] of 4.14 µM.
In assay [1], `COc1cc(-c2nc3c(o2)c2c4c(ccc2c2occ(C)c32)C(C)(C)CCC4)ccc1O` came in with an inhibition below 80%.
Compound `Cc1coc2c3ccc4c(c3c3oc(Cc5ccc(O)cc5)nc3c12)CCCC4(C)C` had an inhibition in assay [1] above 80%. The same compound gave a half-maximal inhibitory concentration (IC50) against Alpha-glucosidase [2] of 3.21 µM.
For the compound `Cc1coc2c3ccc4c(c3c3oc(-c5ccc(Br)cc5)nc3c12)CCCC4(C)C`, the inhibition in assay [1] is below 80%.
For `Cc1coc2c1C(=O)C(=O)c1c-2ccc2c1CCCC2(C)C` [TANSHINONE IIA], the inhibition in assay [1] is above 80%. The compound also gave a 50% inhibitory concentration (IC50) at Alpha-glucosidase [2] of 11.39 µM.
In the case of `C=C(C)[C@@H]1CC[C@]2(C(=O)NCC(=O)O)CC[C@]3(C)[C@H](CC[C@@H]4[C@@]5(C)Cc6c([nH]c7ccccc67)C(C)(C)[C@@H]5CC[C@]43C)[C@@H]12`, on Alpha-glucosidase [5], the IC50 was found to be 0.04 µM.
With `Cc1coc2c3ccc4c(c3c3oc(Cc5ccc(O)c(O)c5)nc3c12)CCCC4(C)C`, the inhibition in assay [1] was above 80%. Moreover, the Ki (usually a measure of affinity in units of concentration, obtained from inhibition or displacement) on Alpha-glucosidase [6] came out at 12.1 µM. For the same compound, the inhibition entry in assay [7] was “Active”. The IC50 at Alpha-glucosidase [2] came to 0.73 µM.
In assay [1], `Cc1coc2c3ccc4c(c3c3oc(CCc5ccccc5)nc3c12)CCCC4(C)C` showed an inhibition above 80%. The same compound registered an IC50 on Alpha-glucosidase [2] of 9.46 µM.
For `Cc1coc2c3ccc4c(c3c3oc(-c5ccc(C(F)(F)F)cc5)nc3c12)CCCC4(C)C`, the inhibition in assay [1] was above 80%. The compound also came in with an IC50 at Alpha-glucosidase [2] of 2.33 µM.
Taken in the same sequence, the figures for `Cc1coc2c3ccc4c(c3c3oc(-c5ccccc5)nc3c12)CCCC4(C)C` were above 80% and 3.51 µM.
